Data published in patent publication US11013696B2, “Lipids and lipid compositions for the delivery of active agents” (Novartis AG, priority 2013, dated 2021).

Columns and labels:
[1] = Percent encapsulation of mRNA in lipid nanoparticles (Quant-iT Ribogreen); type: physicochemical; conditions: Table 2; leptin mRNA in LNP with the cationic lipid
Procedure: All equipment and disposable supplies are certified free of RNase activity by the manufacturer or rendered RNase free by use of the RNaseZap reagent (LifeTechnologies). mRNA is encapsulated at a cationic lipid amine to mRNA phosphate (N:P) molar ratio of 4:1. Lipids (cationic lipid, DSPC, cholesterol and lipidated PEG or stealth lipid) are dissolved in ethanol. The molar ratios are 40:10:38:2, respectively. The mixture is sonicated briefly, then gently agitated for 5 minutes and then maintained at 37° C. until use. mRNA is exchanged into citrate buffer pH 5.8-6.0 by use of Amicon Ultra-15 centrifugal concentrators, and the final concentration is adjusted to 0.5 mg/ml and held at 37° C. until use. An equal volume of lipids in ethanol, mRNA in citrate buffer, and citrate buffer alone are drawn into disposable syringes. Tubing leading from syringes containing lipids and mRNA are attached to the T junction, and tubing leading from the syringe containing citrate buffer alone is paired with the tubing exiting the T-junction over a collection vessel containing a stir bar on an active stir plate. Syringes are placed in a syringe pump set to expel contents at a flow rate of 1 ml per minute.
The pump is activated, and the collected mRNA in lipid nanoparticles is transferred to SnakeSkin dialysis tubing (10,000 MWCO, Thermo Scientific). Material is dialyzed against RNAse- and pyrogen-free 1× phosphate buffered saline overnight at 4° C.
Percent encapsulation of mRNA in lipid nanoparticles is determined using the Quant-iT Ribogreen RNA Assay kit (Life Technologies). The LNP-mRNA suspension is assayed in buffer (mRNA outside the particle), and buffer plus Triton X-100 detergent (total mRNA). The difference calculated is the mRNA inside the particle. Prepare a 1000 ng/mL stock from the RNA provided in the kit and use this to generate a standard curve (0 ng/ml, 15.63-1000 ng/ml) in TE and TE+0.75% Triton X-100. Prepare LNP-mRNA samples in TE buffer and TE buffer +0.75% Triton X-100 with appropriate dilution so that reading is in the range of standard curve (400-2,000 fold). In a 384-well plate (Costar non-treated #3573) add 0.04 ml of standard (in duplicate) or sample (in triplicate) per well. Dilute Ribogreen reagent 240-fold in TE buffer and add 0.06 ml per well. Mix contents of wells and measure fluorescence (excitation=480 nm, emission=520 nm). Subtract background values (no RNA) from standard and test sample values and determine the concentrations of RNA in the samples using the standard curves. Determine the percent encapsulation of the sample by dividing the difference in concentrations between sample+triton and sample in buffer alone by the sample+triton concentration.

[2] = siRNA encapsulation in lipid nanoparticles (SYBR Gold); type: physicochemical; conditions: Table 2; FVII siRNA in LNP with the cationic lipid
Procedure: The lipid nanoparticles (LNPs) were formed by mixing equal volumes of lipids dissolved in alcohol with siRNA dissolved in a citrate buffer by an impinging jet process. The lipid solution contains a cationic lipid compound of the invention, a helper lipid (cholesterol), an optional neutral lipid (DSPC) and a PEG (PEG) lipid at a concentration of 8-16 mg/mL with a target of 12 mg/mL in an alcohol. The siRNA to total lipid ratio is approximately 0.05 (wt/wt). Where a LNP formulation contains four lipid components, the molar ratios of the lipids ranges from 20 to 70 mole percent for the cationic lipid with a target of 40-60, the mole percent of helper lipid ranges from 20 to 70 with a target of 30 to 50, the mole percent of neutral lipid ranges from 0-30, the mole percent of PEG lipid has a range from 1 to 6 with a target of 2 to 5. The concentration of siRNA solution ranges from 0.7 to 1.0 mg/mL with a target of 0.8 to 0.9 mg/mL in a sodium citrate: sodium chloride buffer pH 4-6, with a target of 4.5-5.5. The LNPs are formed by mixing equal volumes of lipid solution in ethanol with siRNA dissolved in a citrate buffer by an impinging jet process through a mixing device with ID ranging from 0.25 to 2.0 mm at a flow rate from 10 to 640 mL/min. The mixed LNP solution is held at room temperature for 0-24 hrs prior to a dilution step. The solution is then concentrated and diafiltered with suitable buffer by ultrafiltration or dialysis process using membranes with a MW cutoff from 30 to 500 KD. The final product is sterile filtered and stored at 4° C.
The lipid nanoparticles (LNPs) were formed by mixing equal volumes of lipids dissolved in alcohol with siRNA dissolved in a citrate buffer by an impinging jet process. The lipid solution contains a cationic lipid compound of the invention, a helper lipid (cholesterol), an optional neutral lipid (DSPC) and a stealth lipid (5010, S024, S027, or S031) at a concentration of 8-16 mg/mL with a target of 12 mg/mL in an alcohol. The siRNA to total lipid ratio is approximately 0.05 (wt/wt). Where a LNP formulation contains four lipid components, the molar ratios of the lipids ranges from 20 to 70 mole percent for the cationic lipid with a target of 40-60, the mole percent of helper lipid ranges from 20 to 70 with a target of 30 to 50, the mole percent of neutral lipid ranges from 0-30, the mole percent of PEG lipid has a range from 1 to 6 with a target of 2 to 5. The concentration of siRNA solution ranges from 0.7 to 1.0 mg/mL with a target of 0.8 to 0.9 mg/mL in a sodium citrate: sodium chloride buffer pH 4-6, with a target of 4.5-5.5. The LNPs are formed by mixing equal volumes of lipid solution in ethanol with siRNA dissolved in a citrate buffer by an impinging jet process through a mixing device with ID ranging from 0.25 to 2.0 mm at a flow rate from 10 to 640 mL/min. The mixed LNP solution is held at room temperature for 0-24 hrs prior to a dilution step. The solution is then concentrated and diafiltered with suitable buffer by ultrafiltration process using membranes with a MW cutoff from 30 to 500 KD. The final product is sterile filtered and stored at 4° C.
SYBR Gold flourescence reagent is used for the determination of siRNA encapsulation in the DLP's. DLP's with and without triton x-100 are used to determine the free siRNA and total siRNA amounts. DLP's samples with and without triton X-100 were excited at 485 nm and flourescence emission is measured at 530 nm. Encapsulation efficiency is calculated based on the following formula: Encapsulation efficiency:[([…])/(total siRNA concentration)]×100% Encapsulation Data

Structure (SMILES) | % encapsulation mRNA Leptin [1] [%] | % encapsulation siRNA FVII [2] [%]
CCCCC/C=C\C/C=C\CCCCCCCC(=O)OCCC(CCCCCCCCCCCC)OC(=O)OCCCN(C)CC (stereo not drawn) [Example 45, (9Z,12Z)-3-(((3-(ethyl(methyl)amino)propoxy)carbonyl)oxy)pentadecyl octadeca-9,12-dienoate] | 88.2 | 86.4
CCCCCCCCCCCCC(CCOC(=O)CCC(OCC(CCC)CCC)OCC(CCC)CCC)OC(=O)OCCCN(CC)CC (stereo not drawn) [Example 13, 3-(((3-(diethylamino)propoxy)carbonyl)oxy)pentadecyl 4,4-bis((2-propylpentyl)oxy)butanoate] | 81.1 | 90.3
CCCCCCCCCCCCC(CCC(=O)OC(COC(=O)CCCCCCCCCCC)COC(=O)CCCCCCCCCCC)OC(=O)OCCCN(CC)CC (stereo not drawn) [Example 88, 2-((4-(((3-(diethylamino)propoxy)carbonyl)oxy)hexadecanoyl)oxy)propane-1,3-diyl didodecanoate] | 39.2 | 77.4
CCCCCCCCCCCCC(CCOC(=O)CCCCCCC(OCC(CCC)CCC)OCC(CCC)CCC)OC(=O)OCCCN(C)CC (stereo not drawn) [Example 22, 3-(((3-(ethyl(methyl)amino)propoxy)carbonyl)oxy)pentadecyl 8,8-bis((2-propylpentyl)oxy)octanoate] | 99.2 | 91.7
CCCCC/C=C\C/C=C\CCCCCCCC(=O)OCCN(CCOC(=O)CCCCCCC/C=C\C/C=C\CCCCC)C(=O)CCC(CCCCCCCCCCCC)OC(=O)OCCCN(CC)CC (stereo not drawn) [Example 103, (9Z,12Z)-10-dodecyl-3-ethyl-14-(2-((9Z,12Z)-octadeca-9,12-dienoyloxy)ethyl)-8,13-dioxo-7,9-dioxa-3,14-diazahexadecan-16-yl octadeca-9,12-dienoate] | 72.5 | 83.2
CCCCCCCCCCCCC(CCOC(=O)CCC(OCCCCCCCC)OCCCCCCCC)OC(=O)OCCCN(CC)CC (stereo not drawn) [Example 11, 3-(((3-(diethylamino)propoxy)carbonyl)oxy)pentadecyl 4,4-bis(octyloxy)butanoate] | 98.2 | 89.7

Further lines, results first:

% encapsulation mRNA Leptin [1] [%] | % encapsulation siRNA FVII [2] [%] | Structure (SMILES)
24.0 | 91.7 | CCCCCCCCCCCCC(CCOC(=O)CCCCCC(COC(=O)CCCCCCC)COC(=O)CCCCCCC)OC(=O)OCCCN(CC)CC (stereo not drawn) [Example 6, 2-(10-dodecyl-3-ethyl-8,14-dioxo-7,9,13-trioxa-3-azanonadecan-19-yl)propane-1,3-diyl dioctanoate]
98.2 | 91.2 | CCCCCCCCCCCCC(CCOC(=O)CCCCCCC(OCC(CCC)CCC)OCC(CCC)CCC)OC(=O)OCCCN(CC)CC (stereo not drawn) [Example 21, 3-(((3-(diethylamino)propoxy)carbonyl)oxy)pentadecyl 8,8-bis((2-propylpentyl)oxy)octanoate]
99.4 | 88.0 | CCCCCCCCCCCCC(CCOC(=O)CCC(OCC(CCC)CCC)OCC(CCC)CCC)OC(=O)OCCCN(C)CC (stereo not drawn) [Example 14, 3-(((3-(ethyl(methyl)amino)propoxy)carbonyl)oxy)pentadecyl 4,4-bis((2-propylpentyl)oxy)butanoate]
88.4 | 89.9 | CCCCCCCCCCCCC(CCOC(=O)CCCCCCC(COC(=O)CCCCCCC)COC(=O)CCCCCCC)OC(=O)OCCCN(C)C (stereo not drawn) [Example 10, 2-(9-dodecyl-2-methyl-7,13-dioxo-6,8,12-trioxa-2-azanonadecan-19-yl)propane-1,3-diyl dioctanoate]
98.9 | 91.0 | CCCCCCCCCCCCC(CCOC(=O)CCC(OCC(CCC)CCC)OCC(CCC)CCC)OC(=O)OCCCN(C)C (stereo not drawn) [Example 15, 3-(((3-(dimethylamino)propoxy)carbonyl)oxy)pentadecyl 4,4-bis((2-propylpentyl)oxy)butanoate]
98.0 | 92.0 | CCCCCCCCCCCCC(CCOC(=O)CCCCCCC(OCC(CCC)CCC)OCC(CCC)CCC)OC(=O)OCCCN(C)C (stereo not drawn) [Example 23, 3-(((3-(dimethylamino)propoxy)carbonyl)oxy)pentadecyl 8,8-bis((2-propylpentyl)oxy)octanoate]
84.6 | 88.3 | CCCCCCCCCCCCC(CCOC(=O)CCCCC(OCCCCCC)OCCCCCC)OC(=O)OCCCN(CC)CC (stereo not drawn) [Example 17, 3-(((3-(diethylamino)propoxy)carbonyl)oxy)pentadecyl 6,6-bis(hexyloxy)hexanoate]
83.1 | 77.5 | CCCCCCCCCCCCCC(=O)OCC(COC(=O)CCCCCCCCCCCCC)OC(=O)CCC(CCCCCCCCCCCC)OC(=O)OCCCN(CC)CC (stereo not drawn) [Example 84, 2-((4-(((3-(diethylamino)propoxy)carbonyl)oxy)hexadecanoyl)oxy)propane-1,3-diyl ditetradecanoate]
96.6 | 91.0 | CCCCCCCCCCCCC(CCOC(=O)CCCCCCC(COC(=O)CCCCCCC)COC(=O)CCCCCCC)OC(=O)OCCCN(CC)CC (stereo not drawn) [Example 9, 2-(10-dodecyl-3-ethyl-8,14-dioxo-7,9,13-trioxa-3-azaicosan-20-yl)propane-1,3-diyl dioctanoate]
